Laboratory results published in article PMC12797502, “Effects of emodepside on single-channel properties of Onchocerca volvulus SLO-1A (BK) potassium channels” (Parasites & Vectors, 2025).

Molecular target: T1, Ovo-SLO-1A (Onchocerca volvulus, UniProt A0A2K6W0E9)
T1 construct: T2A-linked GFP as transfection marker; homotetramer; Ala350 printed in S6 (natural residue)
Assay: inside-out and whole-cell patch clamp, transfected HEK293 cells
Assay type: biochemical
Conditions: activator; 0.3 µM (inside-out, +20 mV, 100 µM free Ca2+, bath pH 7.2) or 1 µM (whole-cell, +20 mV); room temperature; empty-vector control

T1 sequence (A0A2K6W0E9 1-1119): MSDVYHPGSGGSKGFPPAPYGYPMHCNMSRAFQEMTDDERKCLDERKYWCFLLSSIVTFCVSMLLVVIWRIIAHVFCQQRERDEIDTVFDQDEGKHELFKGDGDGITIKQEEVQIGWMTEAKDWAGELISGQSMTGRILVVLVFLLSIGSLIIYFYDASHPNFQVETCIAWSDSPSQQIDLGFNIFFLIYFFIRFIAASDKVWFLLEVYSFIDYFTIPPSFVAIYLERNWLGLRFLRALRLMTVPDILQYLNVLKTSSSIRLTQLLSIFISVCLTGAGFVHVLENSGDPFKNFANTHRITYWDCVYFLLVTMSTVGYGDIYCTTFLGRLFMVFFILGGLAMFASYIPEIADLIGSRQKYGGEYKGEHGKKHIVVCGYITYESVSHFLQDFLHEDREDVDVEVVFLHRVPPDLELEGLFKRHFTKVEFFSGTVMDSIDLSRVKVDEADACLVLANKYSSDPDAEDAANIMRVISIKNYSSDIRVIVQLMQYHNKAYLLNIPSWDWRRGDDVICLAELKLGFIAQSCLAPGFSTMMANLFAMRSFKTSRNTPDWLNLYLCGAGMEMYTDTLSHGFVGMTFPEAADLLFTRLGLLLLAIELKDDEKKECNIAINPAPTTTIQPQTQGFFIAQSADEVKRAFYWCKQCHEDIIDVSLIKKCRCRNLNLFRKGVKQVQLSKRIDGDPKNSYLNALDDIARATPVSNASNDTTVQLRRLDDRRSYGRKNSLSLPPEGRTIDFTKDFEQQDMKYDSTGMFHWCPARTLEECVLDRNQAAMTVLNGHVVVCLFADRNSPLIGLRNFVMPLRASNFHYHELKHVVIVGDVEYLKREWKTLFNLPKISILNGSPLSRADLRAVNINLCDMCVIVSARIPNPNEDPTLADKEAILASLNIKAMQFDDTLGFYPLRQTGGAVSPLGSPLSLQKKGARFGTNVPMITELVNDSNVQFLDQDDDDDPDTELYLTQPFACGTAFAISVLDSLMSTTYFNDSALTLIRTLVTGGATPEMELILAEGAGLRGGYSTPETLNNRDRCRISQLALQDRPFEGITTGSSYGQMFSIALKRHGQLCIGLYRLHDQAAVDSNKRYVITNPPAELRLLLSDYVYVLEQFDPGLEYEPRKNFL

CC(C)C[C@H]1C(=O)O[C@H](Cc2ccc(N3CCOCC3)cc2)C(=O)N(C)[C@@H](CC(C)C)C(=O)O[C@H](C)C(=O)N(C)[C@@H](CC(C)C)C(=O)O[C@H](Cc2ccc(N3CCOCC3)cc2)C(=O)N(C)[C@@H](CC(C)C)C(=O)O[C@H](C)C(=O)N1C [Emodepside]
inside-out and whole-cell patch clamp, transfected HEK293 cells: The probability of the channel being open, Popen, significantly increased
